System: LG0567-F671-PDC complex spheroids viability
Test: Anticancer human tumor LG0567-F671-PDC patient-derived lung adenocarcinoma cell line growth inhibition [RAS]
Conditions: for IC50: curve of first compound; for viability, T/C: stronger effect = lower value
Procedure, shortened: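 Agents were tested in combination matrices in half-log decrements from a top concentration at or near clinical Cmax (10 microM if undetermined). Targets were multi-cell spheroids of tumour lines plus HUVEC and MSC stromal cells.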

[1] = second compound 0.000949 µM, first compound 0.0316 µM
[2] = second compound 0.000949 µM, first compound 0.1 µM
[3] = second compound 0.000949 µM, first compound 0.316 µM
[4] = second compound 0.000949 µM, first compound 1 µM
[5] = second compound 0.000949 µM, first compound 3.16 µM
[6] = second compound 0.000949 µM, first compound 10 µM
[7] = second compound 0.003 µM, first compound 0.0316 µM
[8] = second compound 0.003 µM, first compound 0.1 µM
[9] = second compound 0.003 µM, first compound 0.316 µM
[10] = second compound 0.003 µM, first compound 1 µM
[11] = second compound 0.003 µM, first compound 3.16 µM
[12] = second compound 0.003 µM, first compound 10 µM
[13] = second compound 0.00949 µM, first compound 0.0316 µM
[14] = second compound 0.00949 µM, first compound 0.1 µM
[15] = second compound 0.00949 µM, first compound 0.316 µM
[16] = second compound 0.00949 µM, first compound 1 µM
[17] = second compound 0.00949 µM, first compound 3.16 µM
[18] = second compound 0.00949 µM, first compound 10 µM
[19] = second compound 0.03 µM, first compound 0.0316 µM
[20] = second compound 0.03 µM, first compound 0.1 µM
[21] = second compound 0.03 µM, first compound 0.316 µM
[22] = second compound 0.03 µM, first compound 1 µM
[23] = second compound 0.03 µM, first compound 3.16 µM
[24] = second compound 0.03 µM, first compound 10 µM
[25] = second compound 0.0949 µM, first compound 0.0316 µM
[26] = second compound 0.0949 µM, first compound 0.1 µM
[27] = second compound 0.0949 µM, first compound 0.316 µM
[28] = second compound 0.0949 µM, first compound 1 µM
[29] = second compound 0.0949 µM, first compound 3.16 µM
[30] = second compound 0.0949 µM, first compound 10 µM
[31] = second compound 0.3 µM, first compound 0.0316 µM
[32] = second compound 0.3 µM, first compound 0.1 µM
[33] = second compound 0.3 µM, first compound 0.316 µM
[34] = second compound 0.3 µM, first compound 1 µM
[35] = second compound 0.3 µM, first compound 3.16 µM
[36] = second compound 0.3 µM, first compound 10 µM
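Note: spheroids exposed to compound for seven days before readout.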
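Throughout, for IC50: luminescence signal used as a proxy for viable cells.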

## Cc1nc(N2CCC3(CC2)COC(C)C3N)c(CO)nc1Sc1ccnc(N)c1Cl (stereo unspecified) + CCn1c(-c2cc(N3CCN(C)CC3)cnc2C(C)OC)c2c3cc(ccc31)-c1csc(n1)CC(NC(=O)C1CC1C)C(=O)N1CCCC(N1)C(=O)OCC(C)(C)C2
Second compound 0.000949 µM
  IC50: < 0.0316 µM
Second compound 0.003 µM
  IC50: < 0.0316 µM
Second compound 0.00949 µM
  IC50: < 0.0316 µM
Second compound 0.03 µM
  IC50: < 0.0316 µM
Second compound 0.0949 µM
  IC50: < 0.0316 µM
Second compound 0.3 µM
  IC50: < 0.0316 µM
[1]
  viability, T/C: 13.4%
[2]
  viability, T/C: 9.61%
[3]
  viability, T/C: 5.09%
[4]
  viability, T/C: 3.4%
[5]
  viability, T/C: 2.1%
[6]
  viability, T/C: 1.79%
[7]
  viability, T/C: 6.69%
[8]
  viability, T/C: 5.75%
[9]
  viability, T/C: 2.58%
[10]
  viability, T/C: 2.04%
[11]
  viability, T/C: 1.52%
[12]
  viability, T/C: 1.27%
[13]
  viability, T/C: 3.68%
[14]
  viability, T/C: 3.22%
[15]
  viability, T/C: 1.87%
[16]
  viability, T/C: 1.37%
[17]
  viability, T/C: 1.14%
[18]
  viability, T/C: 1.07%
[19]
  viability, T/C: 2.35%
[20]
  viability, T/C: 1.85%
[21]
  viability, T/C: 1.58%
[22]
  viability, T/C: 1.41%
[23]
  viability, T/C: 1.06%
[24]
  viability, T/C: 0.91%
[25]
  viability, T/C: 2.09%
[26]
  viability, T/C: 1.47%
[27]
  viability, T/C: 1.37%
[28]
  viability, T/C: 0.88%
[29]
  viability, T/C: 0.94%
[30]
  viability, T/C: 0.69%
[31]
  viability, T/C: 1.86%
[32]
  viability, T/C: 1.2%
[33]
  viability, T/C: 0.98%
[34]
  viability, T/C: 0.98%
[35]
  viability, T/C: 0.68%
[36]
  viability, T/C: 0.66%

## NC1c2ccccc2OC12CCN(c1cnc3c(N4CCCc5ncccc54)n[nH]c3n1)CC2 (stereo unspecified) + CCn1c(-c2cc(N3CCN(C)CC3)cnc2C(C)OC)c2c3cc(ccc31)-c1csc(n1)CC(NC(=O)C1CC1C)C(=O)N1CCCC(N1)C(=O)OCC(C)(C)C2
Second compound 0.000949 µM
  IC50: < 0.0316 µM
Second compound 0.003 µM
  IC50: < 0.0316 µM
Second compound 0.00949 µM
  IC50: < 0.0316 µM
Second compound 0.03 µM
  IC50: < 0.0316 µM
Second compound 0.0949 µM
  IC50: < 0.0316 µM
Second compound 0.3 µM
  IC50: < 0.0316 µM
[1]
  viability, T/C: 6.06%
[2]
  viability, T/C: 4.3%
[3]
  viability, T/C: 2.12%
[4]
  viability, T/C: 1.95%
[5]
  viability, T/C: 1.97%
[6]
  viability, T/C: 1.51%
[7]
  viability, T/C: 3.74%
[8]
  viability, T/C: 2.3%
[9]
  viability, T/C: 1.62%
[10]
  viability, T/C: 1.58%
[11]
  viability, T/C: 1.33%
[12]
  viability, T/C: 1.84%
[13]
  viability, T/C: 2.32%
[14]
  viability, T/C: 1.6%
[15]
  viability, T/C: 1.26%
[16]
  viability, T/C: 0.84%
[17]
  viability, T/C: 1.05%
[18]
  viability, T/C: 1.1%
[19]
  viability, T/C: 1.64%
[20]
  viability, T/C: 1.27%
[21]
  viability, T/C: 1.19%
[22]
  viability, T/C: 0.92%
[23]
  viability, T/C: 1.02%
[24]
  viability, T/C: 0.81%
[25]
  viability, T/C: 1.33%
[26]
  viability, T/C: 1.55%
[27]
  viability, T/C: 0.92%
[28]
  viability, T/C: 0.69%
[29]
  viability, T/C: 0.98%
[30]
  viability, T/C: 0.76%
[31]
  viability, T/C: 1.37%
[32]
  viability, T/C: 1.39%
[33]
  viability, T/C: 0.9%
[34]
  viability, T/C: 0.72%
[35]
  viability, T/C: 0.85%
[36]
  viability, T/C: 0.72%

## Nc1ccn(C2OC(CO)C(O)C2(F)F)c(=O)n1 (stereo unspecified) + CCn1c(-c2cc(N3CCN(C)CC3)cnc2C(C)OC)c2c3cc(ccc31)-c1csc(n1)CC(NC(=O)C1CC1C)C(=O)N1CCCC(N1)C(=O)OCC(C)(C)C2
Second compound 0.000949 µM
  IC50: < 0.00316 µM
Second compound 0.003 µM
  IC50: < 0.00316 µM
Second compound 0.00949 µM
  IC50: < 0.00316 µM
Second compound 0.03 µM
  IC50: < 0.00316 µM
Second compound 0.0949 µM
  IC50: < 0.00316 µM
Second compound 0.3 µM
  IC50: < 0.00316 µM
Second compound 0.000949 µM, first compound 0.00316 µM
  viability, T/C: 23.8%
Second compound 0.000949 µM, first compound 0.01 µM
  viability, T/C: 22.4%
[1]
  viability, T/C: 22.1%
[2]
  viability, T/C: 22.6%
[3]
  viability, T/C: 20.7%
[4]
  viability, T/C: 22%
Second compound 0.003 µM, first compound 0.00316 µM
  viability, T/C: 11%
Second compound 0.003 µM, first compound 0.01 µM
  viability, T/C: 10.7%
[7]
  viability, T/C: 10.6%
[8]
  viability, T/C: 8.86%
[9]
  viability, T/C: 11.5%
[10]
  viability, T/C: 12.4%
Second compound 0.00949 µM, first compound 0.00316 µM
  viability, T/C: 6.32%
Second compound 0.00949 µM, first compound 0.01 µM
  viability, T/C: 6.32%
[13]
  viability, T/C: 6.59%
[14]
  viability, T/C: 6.78%
[15]
  viability, T/C: 6.01%
[16]
  viability, T/C: 7.27%
Second compound 0.03 µM, first compound 0.00316 µM
  viability, T/C: 6.63%
Second compound 0.03 µM, first compound 0.01 µM
  viability, T/C: 4.5%
[19]
  viability, T/C: 4.58%
[20]
  viability, T/C: 4.82%
[21]
  viability, T/C: 5.13%
[22]
  viability, T/C: 5.29%
Second compound 0.0949 µM, first compound 0.00316 µM
  viability, T/C: 3.22%
Second compound 0.0949 µM, first compound 0.01 µM
  viability, T/C: 3.54%
[25]
  viability, T/C: 3.82%
[26]
  viability, T/C: 3.99%
[27]
  viability, T/C: 4.28%
[28]
  viability, T/C: 5.17%
Second compound 0.3 µM, first compound 0.00316 µM
  viability, T/C: 2.59%
Second compound 0.3 µM, first compound 0.01 µM
  viability, T/C: 2.74%
[31]
  viability, T/C: 3.25%
[32]
  viability, T/C: 3.47%
[33]
  viability, T/C: 4.08%
[34]
  viability, T/C: 3.48%

Reference: PubChem BioAssay AID2060889 (Molecular Pharmacology Branch, DTP, NCI, 2025)
